Experimental data as given in ChEMBL document CHEMBL4616657, “Aromatic Esters of the Crinane Amaryllidaceae Alkaloid Ambelline as Selective Inhibitors of Butyrylcholinesterase” (J Nat Prod, 2020).

How the values were obtained:
Cholinesterase [1] = target: T1, Cholinesterase (Homo sapiens, UniProt P06276); experiment: Inhibition of human BuChE using butyrylthiocholine iodide as substrate measured for 1 min by spectrophotometric based Ellman's method
Acetylcholinesterase [2] = target: T2, Acetylcholinesterase (Homo sapiens, UniProt P22303); experiment: Inhibition of human AChE using acetylthiocholine iodide as substrate at 100 uM measured for 1 min by spectrophotometric based Ellman's method relative to control
T2 sequence (P22303 whole entry): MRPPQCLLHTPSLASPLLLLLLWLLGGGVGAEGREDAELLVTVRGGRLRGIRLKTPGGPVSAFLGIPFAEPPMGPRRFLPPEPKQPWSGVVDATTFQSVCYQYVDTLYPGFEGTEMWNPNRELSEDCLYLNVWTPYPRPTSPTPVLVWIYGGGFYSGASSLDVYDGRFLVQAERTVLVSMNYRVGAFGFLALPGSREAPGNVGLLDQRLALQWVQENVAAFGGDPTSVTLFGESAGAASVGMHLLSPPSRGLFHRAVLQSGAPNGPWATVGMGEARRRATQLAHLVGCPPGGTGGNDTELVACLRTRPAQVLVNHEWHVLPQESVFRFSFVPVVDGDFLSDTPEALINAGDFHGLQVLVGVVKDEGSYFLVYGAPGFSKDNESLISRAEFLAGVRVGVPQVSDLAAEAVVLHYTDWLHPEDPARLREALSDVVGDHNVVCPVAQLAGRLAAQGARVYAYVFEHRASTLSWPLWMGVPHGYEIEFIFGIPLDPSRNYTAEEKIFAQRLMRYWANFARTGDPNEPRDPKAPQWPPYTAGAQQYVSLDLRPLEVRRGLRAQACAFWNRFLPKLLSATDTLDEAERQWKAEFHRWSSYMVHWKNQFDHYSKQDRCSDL

Acetylcholinesterase [3] = target: T2, Acetylcholinesterase; experiment: Inhibition of human AChE using acetylthiocholine iodide as substrate measured for 1 min by spectrophotometric based Ellman's method
Cholinesterase [4] = target: T1, Cholinesterase; experiment: Inhibition of human BuChE using butyrylthiocholine iodide as substrate at 100 uM measured for 1 min by spectrophotometric based Ellman's method relative to control
Homo sapiens = species: Homo sapiens; experiment: Selectivity index, ratio of IC50 for inhibition of human AChE using acetylthiocholine iodide as substrate to inhibition of human BuChE using butyrylthiocholine iodide as substrate
[5] = Effective permeability of the compound at pH 7.4 at 100 uM measured after 3 to 6 hrs by PAMPA assay; type: ADME; conditions: read-out: Peff

T1 sequence (P06276 whole entry): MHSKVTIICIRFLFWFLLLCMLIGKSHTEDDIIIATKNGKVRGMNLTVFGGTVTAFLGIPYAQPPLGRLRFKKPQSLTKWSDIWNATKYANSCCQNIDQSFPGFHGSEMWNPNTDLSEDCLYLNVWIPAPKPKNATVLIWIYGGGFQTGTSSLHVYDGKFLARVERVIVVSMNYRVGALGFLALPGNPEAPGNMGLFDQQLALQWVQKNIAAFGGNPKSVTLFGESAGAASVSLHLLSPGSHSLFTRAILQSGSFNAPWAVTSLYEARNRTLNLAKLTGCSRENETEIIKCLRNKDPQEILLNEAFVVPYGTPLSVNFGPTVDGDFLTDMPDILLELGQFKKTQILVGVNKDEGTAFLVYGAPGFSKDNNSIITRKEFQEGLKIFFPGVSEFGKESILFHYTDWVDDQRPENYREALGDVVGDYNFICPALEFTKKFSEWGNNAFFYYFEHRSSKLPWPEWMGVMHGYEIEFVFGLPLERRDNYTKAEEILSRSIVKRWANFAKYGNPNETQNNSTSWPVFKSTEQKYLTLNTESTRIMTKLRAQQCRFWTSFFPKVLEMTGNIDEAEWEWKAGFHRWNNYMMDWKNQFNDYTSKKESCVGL

Compound	IC50 (Cholinesterase [1])	inhibition (Acetylcholinesterase [2])	IC50 (Acetylcholinesterase [3])	inhibition (Cholinesterase [4])	Ratio IC50 (Homo sapiens)	Papp at 100 µM [5]
CCCCC(=O)O[C@@H]1C[N@@]2Cc3c(cc4c(c3OC)OCO4)[C@@]13C=C[C@H](OC)C[C@H]23	> 100 µM	7%	> 100 µM	39%		
COc1c2c(cc3c1OCO3)[C@]13C=C[C@H](OC)C[C@@H]1N(C2)C[C@H]3OC(=O)c1ccc2ccccc2c1	14 µM		> 100 µM			
COc1c2c(cc3c1OCO3)[C@]13C=C[C@H](OC)C[C@@H]1N(C2)C[C@H]3OC(=O)c1ccco1	> 100 µM		> 100 µM			
COc1c2c(cc3c1OCO3)[C@]13C=C[C@H](OC)C[C@@H]1N(C2)C[C@H]3OC(=O)c1ccc(C)cc1	28 µM		> 100 µM			
COc1ccccc1C(=O)O[C@@H]1C[N@@]2Cc3c(cc4c(c3OC)OCO4)[C@@]13C=C[C@H](OC)C[C@H]23		31%		99%	> 235	
COc1c2c(cc3c1OCO3)[C@]13C=C[C@H](OC)C[C@@H]1[N@](C2)C[C@H]3OC(C)=O		4%		28%		
COc1c2c(cc3c1OCO3)[C@]13C=C[C@H](OC)C[C@@H]1N(C2)C[C@H]3OC(C)=O	> 100 µM		> 100 µM			
COc1c2c(cc3c1OCO3)[C@]13C=C[C@H](OC)C[C@@H]1[N@](C2)C[C@H]3OC(=O)C(C)C		3%		12%		
COc1c2c(cc3c1OCO3)[C@]13C=C[C@H](OC)C[C@@H]1[N@](C2)C[C@H]3OC(=O)c1cccc2ccccc12		21%		96%	> 1000	
CCC(=O)O[C@@H]1C[N@@]2Cc3c(cc4c(c3OC)OCO4)[C@@]13C=C[C@H](OC)C[C@H]23	> 100 µM	15%	> 100 µM	16%		
COc1c2c(cc3c1OCO3)[C@]13C=C[C@H](OC)C[C@@H]1N(C2)C[C@H]3OC(=O)C(C)C	> 100 µM		> 100 µM			
COc1ccc(C(=O)O[C@@H]2C[N@@]3Cc4c(cc5c(c4OC)OCO5)[C@@]24C=C[C@H](OC)C[C@H]34)cc1OC		15%		33%		
COc1c2c(cc3c1OCO3)[C@]13C=C[C@H](OC)C[C@@H]1[N@](C2)C[C@H]3OC(=O)c1ccccc1C	0.28 µM	51%	55 µM	99%	195	19 ×10⁻⁶ cm/s
COc1c2c(cc3c1OCO3)[C@]13C=C[C@H](OC)C[C@@H]1N(C2)C[C@H]3OC(=O)c1cccc(C)c1	0.86 µM		> 100 µM			8 ×10⁻⁶ cm/s
COc1c2c(cc3c1OCO3)[C@]13C=C[C@H](OC)C[C@@H]1N(C2)C[C@H]3OC(=O)c1ccccc1[N+](=O)[O-]	2.3 µM		54 µM			12 ×10⁻⁶ cm/s
COc1c2c(cc3c1OCO3)[C@]13C=C[C@H](OC)C[C@@H]1[N@](C2)C[C@H]3OC(=O)c1ccccc1[N+](=O)[O-]		75%		97%	23	
COc1c2c(cc3c1OCO3)[C@]13C=C[C@H](OC)C[C@@H]1[N@](C2)C[C@H]3OC(=O)c1cccc([N+](=O)[O-])c1		58%		53%	0.6	
COc1c2c(cc3c1OCO3)[C@]13C=C[C@H](OC)C[C@@H]1[N@](C2)C[C@H]3OC(=O)c1ccc2ccccc2c1		29%		77%	5.2	
COc1c2c(cc3c1OCO3)[C@]13C=C[C@H](OC)C[C@@H]1[N@](C2)C[C@H]3OC(=O)c1ccco1		12%		49%		
